Test results published in US20260250318A1, “COMPOSITIONS AND METHODS FOR CROSSING THE BLOOD BRAIN BARRIER” (VOYAGER THERAPEUTICS, INC., priority 2022, published 2026).

Tested on: brains, heart, liver, muscle, and DRG of the NHPs
Test: Maturation of TTM-001 and TTM-002 capsids, NGS enrichment in NHP tissues
Type: in vivo
Settings: NGS, relative to AAV9 control; for Fold Enrichment relative to AAV9, Liver RNA (NHP): TTM-001 and TTM-002 matured AAV capsid variants
Excerpt: This Example describes maturation of the AAV9 capsid variants, TTM-001 (SEQ ID NO: 981 (amino acid) and 983 (DNA), comprising SEQ ID NO: 941 (encoded by SEQ ID NO: 942)) and TTM-002 (SEQ ID NO: 982 (amino acid) and 984 (DNA), comprising SEQ ID NO: […] (encoded by SEQ ID NO: 944)) in NHPs to further enhance their transduction and biodistribution in the central nervous system as well as other tissues, and evolve the AAV capsid variants to provide further cross-species compatibility. Two approaches were used to mature the TTM-001 and TTM-002 capsid sequences in order to randomize and mutate within and around the peptide insert comprised within loop IV of the capsid variant. […] In the first maturation approach, sets of three contiguous amino acids were randomized across the mutagenesis region in the TTM-001 and TTM-002 sequences, which spanned from position 450 to position 466, numbered according to SEQ ID NO: 981 and 982. In the second maturation approach, mutagenic primers were used to introduce point mutations at a low frequency, scattered across the mutagenesis region in the TTM-001 and TTM-002 sequences ranging from position 449 to position 466, numbered according to SEQ ID NO: 981 and 982. AAV capsid variants arising from each maturation approach for TTM-001 and TTM-002 were pooled together, for subsequent testing and characterization in NHPs.
The library of pooled matured AAV capsid variants generated using the first maturation approach and the second maturation approach for the TTM-001 and TTM-002 AAV capsid variants were injected into two NHPs. […] Following RNA recovery and RT-PCR amplification, a systematic NGS enrichment analysis was performed to calculate the fold enrichment ratio relative to an AAV9 control, and the peptides comprised within the variants were identified.
Following the RNA recovery and NGS analysis from the second maturation approach, approximately 680,000 capsid variants were identified. The 680,000 matured capsid variants were then filtered based on samples with a raw virus count greater than 10 and a coefficient of variance (CV) of less than 1, which was calculated for each peptide across the brain samples taken from the two NHPs. […] Using this filtering criteria, this led to approximately 64,000 matured capsid variants.

Row | Sequence | Fold Enrichment relative to AAV9, DRG (NHP) [fold] | Fold Enrichment relative to AAV9, Brain (NHP) [fold] | Fold Enrichment relative to AAV9, Heart (NHP) [fold] | Fold Enrichment relative to AAV9, Liver DNA (NHP) [fold] | Fold Enrichment relative to AAV9, Liver RNA (NHP) [fold] | Fold Enrichment relative to AAV9, Muscle (NHP) [fold]
1 | KTINGSGSPHSLPYNQQT | 0.000 | 0.000 | 0.000 | 2.048 | 14.792 | 0.000
2 | KTINGSGSPHSLWKNQQT | 0.000 | 0.000 | 0.000 | 4.010 | 45.796 | 0.000
3 | KTINGSGSPHSLYQNQQT | 0.000 | 0.000 | 0.000 | 1.503 | 11.590 | 0.000
4 | KTINGSGSPHSLYWNQQT | 0.000 | 0.000 | 0.000 | 0.000 | 53.262 | 0.000
5 | KTINGSGSPHSMCQNQQT | 0.000 | 0.000 | 0.000 | 1.348 | 37.209 | 0.000
6 | KTINGSGSPHSMCTNQQT | 0.000 | 0.000 | 0.000 | 0.392 | 13.114 | 0.000
7 | KTINGSGSPHSMYMNQQT | 0.000 | 0.000 | 0.000 | 5.840 | 81.106 | 0.000
8 | KTINGSGSPHSPPDNQQT | 0.000 | 0.000 | 0.000 | 0.033 | 12.973 | 0.000
9 | KTINGSGSPHSRCPNQQT | 0.000 | 0.000 | 0.000 | 4.890 | 39.529 | 0.000
10 | KTINGSGSPHSRCRNQQT | 0.000 | 0.000 | 0.000 | 5.150 | 64.416 | 0.000
11 | KTINGSGSPHSRFWNQQT | 0.000 | 0.000 | 0.000 | 6.955 | 51.225 | 0.000
12 | KTINGSGSPHSRMRNQQT | 0.000 | 0.000 | 0.000 | 2.816 | 48.902 | 0.000
